system: HIV-IIIb; experiment: Antiviral assay in MT4 cells; assay type: cell-based; conditions: Human immunodeficiency virus 1, MT4, 120 h; MT-4 cells mixed with HIV-IIIb at m.o.i. 0.003; 5 days at 37° C.; CellTiter-Glo luminescence; 50% decrease in signal, a measure of HIV-1 replication
Method in brief: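 Compound, tested at ten 3-fold dilutions in quadruplicate in 10% FBS medium, received MT-4 cells pre-mixed 1 hour with HIV-IIIb (m.o.i. 0.003). Protection was read as luminescent cell viability (CellTiter-Glo) after 5 days' culture at 37° C.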

| EC50 [nM] | Compound |
| --- | --- |
| 3.1 | Cn1nc(NS(C)(=O)=O)c2c(Cl)ccc(-c3cc4[nH]c(C5CC5)nc4nc3[C@H](Cc3cc(F)cc(F)c3)NC(=O)Cn3nc(C(F)F)c4c3C(F)(F)[C@@H]3C[C@H]43)c21 [Example 97, N—((S)-1-(6-(4-chloro-1-methyl-3-(methylsulfonamido)-1H-indazol-7-yl)-2-cyclopropyl-1H-imidazo[4,5-b]pyridin-5-yl)-2-(3,5-difluorophenyl)ethyl)-2-((3bS,4aR)-3-(difluoromethyl)-5,5-difluoro-3b,4,4a,5-tetrahydro-1H-cyclopropa[3,4]cyclopenta[1,2-c]pyrazol-1-yl)acetamide] |
| 3 | Cn1cc(-c2nc3nc([C@H](Cc4cc(F)cc(F)c4)NC(=O)Cn4nc(C(F)F)c5c4C(F)(F)[C@@H]4C[C@H]54)c(-c4ccc(Cl)c5c(NS(C)(=O)=O)nn(C)c45)cc3[nH]2)cn1 [Example 98, N—((S)-1-(6-(4-chloro-1-methyl-3-(methylsulfonamido)-1H-indazol-7-yl)-2-(1-methyl-1H-pyrazol-4-yl)-1H-imidazo[4,5-b]pyridin-5-yl)-2-(3,5-difluorophenyl)ethyl)-2-((3bS,4aR)-3-(difluoromethyl)-5,5-difluoro-3b,4,4a,5-tetrahydro-1H-cyclopropa[3,4]cyclopenta[1,2-c]pyrazol-1-yl)acetamide] |
| 1.6 | Cc1nc2nc([C@H](Cc3cc(F)cc(F)c3)NC(=O)Cn3nc(C(F)F)c4c3C(F)(F)[C@@H]3C[C@H]43)c(-c3ccc(Cl)c4c(NS(C)(=O)=O)nn(C)c34)cc2[nH]1 [Example 99, N—((S)-1-(6-(4-chloro-1-methyl-3-(methylsulfonamido)-1H-indazol-7-yl)-2-methyl-1H-imidazo[4,5-b]pyridin-5-yl)-2-(3,5-difluorophenyl)ethyl)-2-((3bS,4aR)-3-(difluoromethyl)-5,5-difluoro-3b,4,4a,5-tetrahydro-1H-cyclopropa[3,4]cyclopenta[1,2-c]pyrazol-1-yl)acetamide] |
| 2.4 | Cc1nc2nc([C@H](Cc3cc(F)cc(F)c3)NC(=O)Cn3nc(C(F)(F)F)c4c3C(F)(F)[C@@H]3C[C@H]43)c(-c3ccc(Cl)c4c(NS(C)(=O)=O)nn(C)c34)cc2[nH]1 [Example 100, N—((S)-1-(6-(4-chloro-1-methyl-3-(methylsulfonamido)-1H-indazol-7-yl)-2-methyl-1H-imidazo[4,5-b]pyridin-5-yl)-2-(3,5-difluorophenyl)ethyl)-2-((3bS,4aR)-5,5-difluoro-3-(trifluoromethyl)-3b,4,4a,5-tetrahydro-1H-cyclopropa[3,4]cyclopenta[1,2-c]pyrazol-1-yl)acetamide] |
| 2.1 | COCc1nc2nc([C@H](Cc3cc(F)cc(F)c3)NC(=O)Cn3nc(C(F)(F)F)c4c3C(F)(F)[C@@H]3C[C@H]43)c(-c3ccc(Cl)c4c(NS(C)(=O)=O)nn(C)c34)cc2[nH]1 [Example 101, N—((S)-1-(6-(4-chloro-1-methyl-3-(methylsulfonamido)-1H-indazol-7-yl)-2-(methoxymethyl)-1H-imidazo[4,5-b]pyridin-5-yl)-2-(3,5-difluorophenyl)ethyl)-2-((3bS,4aR)-5,5-difluoro-3-(trifluoromethyl)-3b,4,4a,5-tetrahydro-1H-cyclopropa[3,4]cyclopenta[1,2-c]pyrazol-1-yl)acetamide] |
| 1.5 | COCc1nc2nc([C@H](Cc3cc(F)cc(F)c3)NC(=O)Cn3nc(C(F)F)c4c3C(F)(F)[C@@H]3C[C@H]43)c(-c3ccc(Cl)c4c(NS(C)(=O)=O)nn(C)c34)cc2[nH]1 [Example 102, N—((S)-1-(6-(4-chloro-1-methyl-3-(methylsulfonamido)-1H-indazol-7-yl)-2-(methoxymethyl)-1H-imidazo[4,5-b]pyridin-5-yl)-2-(3,5-difluorophenyl)ethyl)-2-((3bS,4aR)-3-(difluoromethyl)-5,5-difluoro-3b,4,4a,5-tetrahydro-1H-cyclopropa[3,4]cyclopenta[1,2-c]pyrazol-1-yl)acetamide] |
| 5.9 | COCc1nc2nc([C@H](Cc3cc(F)cc(F)c3)NC(=O)Cn3nc(C(F)F)c4c3C(F)(F)[C@@H]3C[C@H]43)c(-c3ccc(Cl)c4c(N)nn(C)c34)cc2[nH]1 [Example 103, N—((S)-1-(6-(3-amino-4-chloro-1-methyl-1H-indazol-7-yl)-2-(methoxymethyl)-1H-imidazo[4,5-b]pyridin-5-yl)-2-(3,5-difluorophenyl)ethyl)-2-((3bS,4aR)-3-(difluoromethyl)-5,5-difluoro-3b,4,4a,5-tetrahydro-1H-cyclopropa[3,4]cyclopenta[1,2-c]pyrazol-1-yl)acetamide] |
| 4.4 | CC(C)c1nc2nc([C@H](Cc3cc(F)cc(F)c3)NC(=O)Cn3nc(C(F)F)c4c3C(F)(F)[C@@H]3C[C@H]43)c(-c3ccc(Cl)c4c(NS(C)(=O)=O)nn(C)c34)cc2[nH]1 [Example 104, N—((S)-1-(6-(4-chloro-1-methyl-3-(methylsulfonamido)-1H-indazol-7-yl)-2-isopropyl-TH-imidazo[4,5-b]pyridin-5-yl)-2-(3,5-difluorophenyl)ethyl)-2-((3bS,4aR)-3-(difluoromethyl)-5,5-difluoro-3b,4,4a,5-tetrahydro-TH-cyclopropa[3,4]cyclopenta[1,2-c]pyrazol-1-yl)acetamide] |
| 4.9 | Cn1nc(NS(C)(=O)=O)c2c(Cl)ccc(-c3cc4[nH]c(C(C)(C)O)nc4nc3[C@H](Cc3cc(F)cc(F)c3)NC(=O)Cn3nc(C(F)F)c4c3C(F)(F)[C@@H]3C[C@H]43)c21 [Example 105, N—((S)-1-(6-(4-chloro-1-methyl-3-(methylsulfonamido)-1H-indazol-7-yl)-2-(2-hydroxypropan-2-yl)-1H-imidazo[4,5-b]pyridin-5-yl)-2-(3,5-difluorophenyl)ethyl)-2-((3bS,4aR)-3-(difluoromethyl)-5,5-difluoro-3b,4,4a,5-tetrahydro-1H-cyclopropa[3,4]cyclopenta[1,2-c]pyrazol-1-yl)acetamide] |
| 6.4 | Cn1nc(NS(C)(=O)=O)c2c(Cl)ccc(-c3cc4[nH]c(C(C)(C)O)nc4nc3[C@H](Cc3cc(F)cc(F)c3)NC(=O)Cn3nc(C(F)(F)F)c4c3C(F)(F)[C@@H]3C[C@H]43)c21 [Example 106, N—((S)-1-(6-(4-chloro-1-methyl-3-(methylsulfonamido)-1H-indazol-7-yl)-2-(2-hydroxypropan-2-yl)-1H-imidazo[4,5-b]pyridin-5-yl)-2-(3,5-difluorophenyl)ethyl)-2-((3bS,4aR)-5,5-difluoro-3-(trifluoromethyl)-3b,4,4a,5-tetrahydro-1H-cyclopropa[3,4]cyclopenta[1,2-c]pyrazol-1-yl)acetamide] |
| 42.2 | Cn1nc(NS(C)(=O)=O)c2c(Cl)ccc(-c3cc4c(nc3[C@H](Cc3cc(F)cc(F)c3)NC(=O)Cn3nc(C(F)(F)F)c5c3C(F)(F)[C@@H]3C[C@H]53)NCC(=O)N4)c21 [Example 107, N—((S)-1-(7-(4-chloro-1-methyl-3-(methylsulfonamido)-1H-indazol-7-yl)-2-oxo-1,2,3,4-tetrahydropyrido[2,3-b]pyrazin-6-yl)-2-(3,5-difluorophenyl)ethyl)-2-((3bS,4aR)-5,5-difluoro-3-(trifluoromethyl)-3b,4,4a,5-tetrahydro-1H-cyclopropa[3,4]cyclopenta[1,2-c]pyrazol-1-yl)acetamide] |
